Measurements as given in PMC8509773, “3-Pyridinylidene Derivatives of Chemically Modified Lupane and Ursane Triterpenes as Promising Anticancer Agents by Targeting Apoptosis” (International Journal of Molecular Sciences, 2021).

Assays:
Experiment in all cases: NCI-60 SRB screening (one-dose and five-dose)
Type in all cases: cell-based, human
Settings in all cases: 48 h
UACC-257 = tested on: UACC-257
Summary of the method: (§1)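 Growth inhibition is scored with sulforhodamine B after 48 h of continuous compound exposure. An MG_MID averages each parameter over the whole cell panel, insensitive lines being counted at the top tested concentration.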

COLO 205 = tested on: COLO 205
Summary of the method: as §1

EKVX = tested on: EKVX
Summary of the method: as §1

786-0 = tested on: 786-0
Summary of the method: as §1

SF-539 = tested on: SF-539
Summary of the method: as §1

MALME-3M = tested on: MALME-3M
Summary of the method: as §1

SF-268 = tested on: SF-268
Summary of the method: (§2)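 48-h single-concentration exposure; SRB protein dye end point; % growth vs untreated controls by absorbance.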

U251 = tested on: U251
Summary of the method: as §2

OVCAR-8 = tested on: OVCAR-8
Summary of the method: (§3)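 After a 48-h incubation with compound, cellular protein was stained with SRB and growth estimated by spectrophotometry relative to untreated controls.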

OVCAR-4 = tested on: OVCAR-4
Summary of the method: as §3

ACHN = tested on: ACHN
Summary of the method: as §1

MOLT-4 = tested on: MOLT-4
Summary of the method: as §2

MDA-MB-435 = tested on: MDA-MB-435
Summary of the method: as §1

K-562 = tested on: K-562
Summary of the method: as §2

MCF7 = tested on: MCF7
Summary of the method: as §1

DU-145 = tested on: DU-145
Summary of the method: as §3

MDA-MB-468 = tested on: MDA-MB-468
Summary of the method: as §1

RXF 393 = tested on: RXF 393
Summary of the method: as §2

HCT-116 = tested on: HCT-116
Summary of the method: as §1

SK-MEL-28 = tested on: SK-MEL-28
Summary of the method: as §3

T-47D = tested on: T-47D
Summary of the method: as §3

HL-60(TB) = tested on: HL-60(TB)
Summary of the method: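 Read-out is sulforhodamine B staining of cellular protein, giving percent growth relative to cultures not exposed to test agent. Exposure lasted 48 h at one compound concentration.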

SW-620 = tested on: SW-620
Summary of the method: as §1

PC-3 = tested on: PC-3
Summary of the method: as §1

A498 = tested on: A498
Summary of the method: as §2

SF-295 = tested on: SF-295
Summary of the method: as §1

SK-MEL-5 = tested on: SK-MEL-5
Summary of the method: as §1

RPMI-8226 = tested on: RPMI-8226
Summary of the method: as §1

SK-OV-3 = tested on: SK-OV-3
Summary of the method: as §1

SR = tested on: SR
Summary of the method: as §2

UACC-62 = tested on: UACC-62
Summary of the method: as §1

HOP-92 = tested on: HOP-92
Summary of the method: as §3

SN12C = tested on: SN12C
Summary of the method: as §2

HCC-2998 = tested on: HCC-2998
Summary of the method: as §3

HT29 = tested on: HT29
Summary of the method: as §3

HOP-62 = tested on: HOP-62
Summary of the method: as §1

HCT-15 = tested on: HCT-15
Summary of the method: as §1

A549/ATCC = tested on: A549/ATCC
Summary of the method: as §1

SNB-19 = tested on: SNB-19
Summary of the method: as §1

IGROV1 = tested on: IGROV1
Summary of the method: as §3

[1] = Homo sapiens, five dose 0.01–100 μM

Which GI50 (UACC-257; Homo sapiens, UACC-257, five dose 0.01–100 μM) does the source give for `COC(=O)[C@]12CC[C@@H](C(=O)/C=C/c3cccnc3)[C@@H]1[C@H]1CC[C@@H]3[C@@]4(C)C/C(=C\c5cccnc5)C(=O)C(C)(C)[C@@H]4CC[C@@]3(C)[C@]1(C)CC2` [Compound 7, methyl 2,30-bis-(3-pyridinylidene)-3,20-dioxo-lup-28-oate] here?
The GI50 was 270 nM.

What about the “Growth Percent” value (UACC-257; UACC-257, 10 μM) of the same compound?
The value was −58.90%.

And the “Growth Percent” value (COLO 205; COLO 205, 10 μM)?
Its value is −45.07%.

And the GI50 (COLO 205; Homo sapiens, COLO 205, five dose 0.01–100 μM)?
The GI50 was 360 nM.

What about the “Growth Percent” value (EKVX; 10 μM) of the same compound?
Its value is −76.32%.

And the GI50 (EKVX; [1])?
The GI50 was 410 nM.

And the “Growth Percent” value (786-0; 786-0, 10 μM)?
The value was −92.26%.

What about the GI50 (786-0; Homo sapiens, 786-0, five dose 0.01–100 μM) of the same compound?
Its GI50 is 310 nM.

And the GI50 (SF-539; Homo sapiens, SF-539, five dose 0.01–100 μM)?
The GI50 was 240 nM.

What about the “Growth Percent” value (SF-539; SF-539, 10 μM) of the same compound?
The value was −96.48%.

And the “Growth Percent” value (MALME-3M; 10 μM)?
Its value is −95.19%.

What about the GI50 (MALME-3M; [1]) of the same compound?
Its GI50 is 210 nM.

And the GI50 (SF-268; Homo sapiens, SF-268, five dose 0.01–100 μM)?
Its GI50 is 1010 nM.

And the “Growth Percent” value (SF-268; SF-268, 10 μM)?
Its value is −80.80%.

And the GI50 (U251; Homo sapiens, U-251, U251, five dose 0.01–100 μM)?
Its GI50 is 360 nM.

And the “Growth Percent” value (U251; U251, 10 μM)?
The value was −87.90%.

What about the GI50 (OVCAR-8; Homo sapiens, OVCAR-8, five dose 0.01–100 μM) of the same compound?
The GI50 was 340 nM.

What about the “Growth Percent” value (OVCAR-8; OVCAR-8, 10 μM) of the same compound?
The value was −34.25%.

What about the GI50 (OVCAR-4; Homo sapiens, OVCAR-4, five dose 0.01–100 μM) of the same compound?
The GI50 was 340 nM.

What about the “Growth Percent” value (OVCAR-4; OVCAR-4, 10 μM) of the same compound?
The value was −39.20%.

What about the “Growth Percent” value (ACHN; 10 μM) of the same compound?
Its value is −100.00%.

And the GI50 (ACHN; [1])?
The GI50 was 190 nM.

And the GI50 (MOLT-4; Homo sapiens, MOLT-4, five dose 0.01–100 μM)?
Its GI50 is 300 nM.

And the “Growth Percent” value (MOLT-4; MOLT-4, 10 μM)?
The value was −31.34%.

And the GI50 (MDA-MB-435; Homo sapiens, MDA-MB-435, MDA-B-435, five dose 0.01–100 μM)?
The GI50 was 200 nM.

And the “Growth Percent” value (MDA-MB-435; MDA-MB-435, 10 μM)?
Its value is −69.71%.

And the GI50 (K-562; Homo sapiens, K562, K-562, five dose 0.01–100 μM)?
Its GI50 is 330 nM.

And the “Growth Percent” value (K-562; K-562, 10 μM)?
Its value is −21.61%.

And the GI50 (MCF7; Homo sapiens, MCF7, five dose 0.01–100 μM)?
Its GI50 is 380 nM.

And the “Growth Percent” value (MCF7; MCF7, 10 μM)?
Its value is −54.19%.

What about the “Growth Percent” value (DU-145; DU-145, 10 μM) of the same compound?
The value was −67.84%.

What about the GI50 (DU-145; Homo sapiens, DU-145, five dose 0.01–100 μM) of the same compound?
Its GI50 is 1530 nM.

What about the GI50 (MDA-MB-468; Homo sapiens, MDA-MB-468, five dose 0.01–100 μM) of the same compound?
The GI50 was 270 nM.

What about the “Growth Percent” value (MDA-MB-468; MDA-MB-468, 10 μM) of the same compound?
The value was −76.12%.

What about the GI50 (RXF 393; Homo sapiens, RXF 393, five dose 0.01–100 μM) of the same compound?
The GI50 was 270 nM.

And the “Growth Percent” value (RXF 393; RXF 393, 10 μM)?
Its value is −93.62%.

And the “Growth Percent” value (HCT-116; HCT-116, 10 μM)?
The value was −87.45%.

And the GI50 (HCT-116; Homo sapiens, HCT-116, five dose 0.01–100 μM)?
Its GI50 is 200 nM.

What about the GI50 (SK-MEL-28; Homo sapiens, SK-MEL-28, five dose 0.01–100 μM) of the same compound?
Its GI50 is 240 nM.

And the “Growth Percent” value (SK-MEL-28; SK-MEL-28, 10 μM)?
Its value is −96.28%.

What about the GI50 (T-47D; Homo sapiens, T47D, T -47D, five dose 0.01–100 μM) of the same compound?
The GI50 was 430 nM.

What about the “Growth Percent” value (T-47D; T-47D, 10 μM) of the same compound?
Its value is −43.57%.

What about the “Growth Percent” value (HL-60(TB); 10 μM) of the same compound?
The value was −30.17%.

What about the GI50 (HL-60(TB); [1]) of the same compound?
Its GI50 is 250 nM.

And the GI50 (SW-620; Homo sapiens, SW-620, five dose 0.01–100 μM)?
Its GI50 is 300 nM.

And the “Growth Percent” value (SW-620; SW-620, 10 μM)?
Its value is −67.32%.

And the GI50 (PC-3; Homo sapiens, PC-3, five dose 0.01–100 μM)?
Its GI50 is 420 nM.

And the “Growth Percent” value (PC-3; PC-3, 10 μM)?
The value was −14.12%.

What about the “Growth Percent” value (A498; A498, 10 μM) of the same compound?
Its value is −91.17%.

And the GI50 (A498; Homo sapiens, A498, five dose 0.01–100 μM)?
The GI50 was 180 nM.

And the GI50 (SF-295; Homo sapiens, SF-295, five dose 0.01–100 μM)?
Its GI50 is 440 nM.

And the “Growth Percent” value (SF-295; SF-295, 10 μM)?
Its value is −98.52%.

What about the GI50 (SK-MEL-5; Homo sapiens, SK-MEL-5, five dose 0.01–100 μM) of the same compound?
The GI50 was 460 nM.

What about the “Growth Percent” value (SK-MEL-5; SK-MEL-5, 10 μM) of the same compound?
Its value is −98.85%.

What about the GI50 (RPMI-8226; Homo sapiens, RPMI-8226, five dose 0.01–100 μM) of the same compound?
The GI50 was 240 nM.

And the “Growth Percent” value (RPMI-8226; RPMI-8226, 10 μM)?
The value was −28.73%.

And the GI50 (SK-OV-3; Homo sapiens, SK-OV-3, five dose 0.01–100 μM)?
The GI50 was 1430 nM.

What about the “Growth Percent” value (SK-OV-3; SK-OV-3, 10 μM) of the same compound?
The value was −23.10%.

And the “Growth Percent” value (SR; 10 μM)?
Its value is −14.07%.

And the GI50 (SR; [1])?
Its GI50 is 270 nM.

And the GI50 (UACC-62; Homo sapiens, UACC-62, five dose 0.01–100 μM)?
The GI50 was 400 nM.

And the “Growth Percent” value (UACC-62; UACC-62, 10 μM)?
Its value is −67.85%.

What about the “Growth Percent” value (HOP-92; HOP-92, 10 μM) of the same compound?
Its value is −79.86%.

And the GI50 (HOP-92; Homo sapiens, HOP-92, five dose 0.01–100 μM)?
The GI50 was 530 nM.

What about the “Growth Percent” value (SN12C; 10 μM) of the same compound?
The value was −77.80%.

And the GI50 (SN12C; [1])?
The GI50 was 390 nM.

What about the “Growth Percent” value (HCC-2998; HCC-2998, 10 μM) of the same compound?
The value was −55.45%.

And the GI50 (HCC-2998; Homo sapiens, HCC-2998, five dose 0.01–100 μM)?
Its GI50 is 670 nM.

What about the “Growth Percent” value (HT29; HT29, 10 μM) of the same compound?
Its value is −45.47%.

What about the GI50 (HT29; Homo sapiens, HT-29, HT29, five dose 0.01–100 μM) of the same compound?
Its GI50 is 320 nM.

What about the “Growth Percent” value (HOP-62; HOP-62, 10 μM) of the same compound?
Its value is −85.57%.

What about the GI50 (HOP-62; Homo sapiens, HOP-62, five dose 0.01–100 μM) of the same compound?
The GI50 was 690 nM.

What about the “Growth Percent” value (HCT-15; HCT-15, 10 μM) of the same compound?
The value was −46.22%.

What about the GI50 (HCT-15; Homo sapiens, HCT-15, five dose 0.01–100 μM) of the same compound?
The GI50 was 240 nM.

What about the “Growth Percent” value (A549/ATCC; 10 μM) of the same compound?
Its value is −9.34%.

What about the GI50 (A549/ATCC; [1]) of the same compound?
The GI50 was 390 nM.

And the GI50 (SNB-19; Homo sapiens, SNB-19, five dose 0.01–100 μM)?
Its GI50 is 690 nM.

And the “Growth Percent” value (SNB-19; SNB-19, 10 μM)?
The value was −87.62%.

What about the GI50 (IGROV1; Homo sapiens, IGROV-1, IGROV1, five dose 0.01–100 μM) of the same compound?
Its GI50 is 270 nM.

What about the “Growth Percent” value (IGROV1; IGROV1, 10 μM) of the same compound?
The value was −87.88%.
